Read-outs that look alike come from different tables or passages of the source.
Tests used:
[1] = system: Candida albicans ATCC 60193 (cervical isolate); test: Agar overlay zone of inhibition of yeast growth; type: cell-based; details: Organism Growth Time Period 48 hours
Procedure: MRS agar was allowed to harden at a 5 mm slant. Lactobacillus crispatus CTV-05 was streaked across the diameter of the plate and was grown for 24, 48 or 72 hours under both anaerobic and ambient atmospheres. Control strains of Lactobacillus jensenii CTV-01, Lactobacillus crispatus CTV-02, Lactobacillus crispatus CTV-03, and Lactobacillus crispatus CTV-04 were grown in the same way. The plates were overlayed with YM agar with 10 mM CNNaS (sodium thiocyanate, previously reported to be an inhibitor of yeast growth) or without CNNaS. The agar overlays were inoculated with one of two strains of Candida albicans ATCC 60193 (cervical isolate) or Candida albicans ATCC 14053 (human blood isolate). Zones of inhibition were measured. […] Therefore, Lactobacillus crispatus CTV-05 inhibits yeast growth in vitro.

[2] = system: women with recurrent bacterial vaginosis; details: for Percentage Women Colonized with H2O2-producing Lactobacilli / Women Colonized with H2O2-producing Lactobacilli, number: n = 15
Procedure: In this study, a group of women with recurrent bacterial vaginosis (BV) was treated with 2% Clindamycin cream, once daily for three days, followed by Lactobacillus suppositories containing the Lactobacillus crispatus CTV-05 strain twice daily for three days. A group of women from the same clinic with recurrent bacterial vaginosis treated with Clindamycin cream alone were included for comparison. […] The patients were evaluated for vaginal presence of H2O2-producing Lactobacilli, and the absence of bacterial vaginosis infection.

Compound: Lactobacillus crispatus CTV-04 [reference compound]
- Zone of Inhibition (in millimeters) [1]: 5 to 2 mm

Compound: CCC[C@@H]1C[C@@H](C(=O)N[C@@H]([C@H]2O[C@H](SC)[C@H](O)[C@@H](O)[C@H]2O)[C@H](C)Cl)N(C)C1 [Clindamycin]
- Percentage Women Colonized with H2O2-producing Lactobacilli ([2]; Enrollment): 33%
- Women Colonized with H2O2-producing Lactobacilli, number ([2]; Enrollment): 5
- Percentage Women Free of Bacterial Vaginosis ([2]; One month post treatment): 53%
- Percentage Women Colonized with H2O2-producing Lactobacilli ([2]; One month post treatment): 40%
- Women Colonized with H2O2-producing Lactobacilli, number ([2]; One month post treatment): 6
- Percentage Women Free of Bacterial Vaginosis ([2]; One week post treatment): 87%
- Percentage Women Colonized with H2O2-producing Lactobacilli ([2]; One week post treatment): 7%
- Women Colonized with H2O2-producing Lactobacilli, number ([2]; One week post treatment): 1
- Percentage Women Free of Bacterial Vaginosis ([2]; Three months post treatment): 26%
- Percentage Women Colonized with H2O2-producing Lactobacilli ([2]; Three months post treatment): 33%
- Women Colonized with H2O2-producing Lactobacilli, number ([2]; Three months post treatment): 5

Compound: Lactobacillus crispatus CTV-02 [reference compound]
- Zone of Inhibition (in millimeters) [1]: 3 to 0 mm

Compound: Lactobacillus jensenii CTV-01 [reference compound]
- Zone of Inhibition (in millimeters) [1]: 1 to 0 mm

Compound: Lactobacillus crispatus CTV-03 [reference compound]
- Zone of Inhibition (in millimeters) [1]: slight inhibition
